We go through 1 compound from patent US20120101147A1, “INHIBITION OF HDAC2 TO PROMOTE MEMORY” (The General Hospital Corporation d/b/a Massachusetts …, priority 2008, published 2012).

The nature of data set [1]: Pharmacokinetics in plasma and brain after single i.p. dose. Type of data set: in vivo. As to conditions: single 45 mg/kg i.p.; C-57 mice. Here is the method:
FIG. 17 is the concentration-time curve of BRD-6929 in plasma and brain following single 45 mg/kg i.p. dose in mice.
FIG. 17 represents a summary of the pharmacokinetic data after a single dose of 45 mg/kg BRD-6929 administered systemically via intraperitoneal injection. The concentration time curves for BRD-6929 in the plasma and brain of C-57 mice from 5 min to 24 h are shown.

For data set [2], the system named is tetra-acetylated H2B. The data set can be described thus: Western blot of cortex after acute treatment: tetra-acetylated H2B. Type of data set: in vivo, mice. Here is the method: (§1) The experimental protocol for acute treatment with BRD-6929 and the corresponding effects on histone acetylation in brain specific regions of adult male C57BL/6J mice is shown in FIG. 18. Crude Protein Lysis Protocol for western blot analysis of specific brain sections.
(§2) a. On ice, thaw frozen tissue and immediately homogenize carefully in 250 uL of ice-cold Suspension Buffer.
(§3) b. As soon as possible, add an equal volume of 2×SDS gel-loading buffer, pipetting up and down to mix.
(§4) 2. Place the sample at 95° C. for 5 min.
(§5) 3. Shear viscous chromosomal DNA by smoothly passaging through 23-25 gauge hypodermic needle (2-3×) or by sonicating briefly (Al used the needle method and it worked fine). Avoid foaming/bubbles.
(§6) 4. Centrifuge the sample at 10,000 g for 10 min at room temperature, transferring supernatant to fresh tube.
On the technique in general: A western blot detects proteins with antibodies after separation by electrophoresis.

The test system of another data set is H2B acetylation. The data set can be described thus: Immunofluorescence: H2B acetylation in primary neuronal cell cultures. Particulars: 1 and 10 uM, 6 h. In kind it is cell-based, mouse. Here is the method:
(§7) 1) Compounds were pin transferred from 384-well plates (Abgene) using a 185 nl pin tool using a no touch bottom protocol.
(§8) 1) Media was aspirated using a plate washer (Tecan) protocol that leaves ˜5 ul residual volume and without touching the bottom of plates); or alternatively, wells were gently aspirated to remove media with 12-channel aspirator wand.
(§9) 2) A multichannel pipet or use liquid handling system (e.g. Combi, standard tubing; slow speed) was used to add 75 ul formaldehyde (4% in PBS) and wells incubated 10 min at room temperature.
(§10) 3) Formaldehyde was aspirated and cells rinsed 3 times with 100 ul PBS;
(§11) 4) PBS was aspirated and 100 ul blocking/permeablization buffer (0.1% Triton-X100, 2% BSA, in PBS) added and wells incubate 1 hour at room temperature.
(§12) 5) Blocking buffer was aspirated and 50 ul primary antibody diluted 1:500 in blocking buffer was added and wells incubated overnight at 4 degrees.
(§13) 1) Primary antibody was aspirated and wells rinsed 3 times with 100 ul blocking buffer
(§14) 2) 50 ul of secondary antibody diluted 1:500 and with Hoeschst (1:1000 from 10 mg/mL (16 mM) stock) added and wells incubated 1.5 hours at room temperature covered in foil to prevent photobleaching.
(§15) 3) Wells were rinsed 3 times with 100 ul PBS, and a 100 uls of PBS added and the plates, sealed
(§16) 4) Plates were then read on Acumen/IX Micro

For a further data set, the system named is H4K12 acetylation. Nature of the data set: Immunofluorescence: H4K12 acetylation in primary cultures (striatum). Particulars: 10 uM, 6 h. In kind it is cell-based, mouse. Here is the method: as §7, §8, §9, §10, §11, §12, §13, §14, §15, §16
Data set [3] relates to H4K12 acetylation in primary striatal cells. The data set can be described thus: Western blot of H4K12 acetylation in primary striatal cells. As to conditions: 1 and 10 uM; relative to DMSO. Type of data set: cell-based, mouse. An excerpt: A. Western blots of primary striatal cells isolated from mouse brain that have been treated with HDAC inhibitors. Two sets of data with 3 independent samples/set. B. Histograms represent the quantification of westerns shown in panel A.
Two sets of data with 3 independent samples/set are presented. Histograms representing the quantification of westerns are also shown. Relative to DMSO controls, BRD-6929 has a significant effect on the acetylation levels of histone locus H4K12. BRD-6929 treatment results in a 5-10 fold increase at 1 and 10 uM. BRD-6929 is an HDAC 1,2 selective compound, and has 200× selectivity for HDAC1,2 vs. HDAC3. […] In this case the data was compared to controls: SAHA and BRD-3696 (CI-994). An HDAC1,2 selective compound is as effective at increasing acetylation as an HDAC1,2,3 inhibitor and a pan inhibitor (i.e. SAHA). Inhibiting HDAC1,2 is sufficient to effect increased acetylation at this histone locus.

Data set [4] deals with tetra-acetylated H2B. Nature of the data set: Western blot of tetra-acetylated H2B in primary striatal cells. In kind it is cell-based, mouse. Particulars: relative to DMSO controls. Here is the method: (§17) Four compounds were tested including CI-994 (BRD-3696) and SAHA. […] BRD-6929 and BRD-5298 treatment results in a 2-5 fold increase in both marks at 1 and 10 uM.
In data set [5] the test system is tetra-acetylated H2B. The data set can be described thus: Western blot of whole brain after chronic administration: tetra-acetylated H2B. Particulars: every day for 10 days. In kind it is in vivo, mice.
Another data set has as its system tetra-acetylated H4. The data set can be described thus: Western blot of tetra-acetylated H4 in primary striatal cells. In kind it is cell-based, mouse. As to conditions: relative to DMSO controls. Here is the method:
as §17

Data set [6] concerns primary neuronal cultures. The data set can be described thus: Immunofluorescence: overall cell number in primary neuronal cultures. Type of data set: cell-based, mouse. As to conditions: 1 and 10 uM, 6 h. Here is the method:
as §7, §8, §9, §10, §11, §12, §13, §14, §15, §16

In the next data set the target is T1, HDAC8 (Homo sapiens, UniProt Q9BY41).
T1 sequence (Q9BY41 1-377): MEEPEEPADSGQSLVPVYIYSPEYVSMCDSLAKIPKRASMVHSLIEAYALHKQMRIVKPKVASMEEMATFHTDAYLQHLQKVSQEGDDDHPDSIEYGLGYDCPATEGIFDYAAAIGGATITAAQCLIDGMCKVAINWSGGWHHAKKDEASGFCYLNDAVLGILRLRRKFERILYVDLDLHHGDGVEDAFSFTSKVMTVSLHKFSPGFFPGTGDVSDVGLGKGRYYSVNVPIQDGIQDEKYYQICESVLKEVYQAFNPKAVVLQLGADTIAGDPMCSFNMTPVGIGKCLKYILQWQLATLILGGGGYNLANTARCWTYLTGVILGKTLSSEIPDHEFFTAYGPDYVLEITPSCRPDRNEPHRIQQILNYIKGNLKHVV
Nature of the data set: In vitro enzymatic inhibition assay against HDAC isoforms. Type of data set: biochemical. Here is the method: (§18) The enzymatic inhibitory activity of multiple HDAC inhibitors was assayed against several of the known HDAC isoforms and is shown in FIG. 8. SAHA was included as a reference mixed class I-class II inhibitor. […] All of the BRD numbered compounds are derived from the ortho-anilide class of compounds. Not all compounds from this class are expected to bind the class II HDACs.

A further data set relates to Class II HDAC enzymes. The description is as above. Type of data set: biochemical. Here is the method: as §18
For a further data set, the system named is H2BK5. Nature of the data set: Western blot of cortex after acute treatment: H2BK5 acetylation. Type of data set: in vivo, mice. Particulars: cortex after 1 hour. Here is the method:
as §1, §2, §3, §4, §5, §6

The next data set relates to mice. Nature of the data set: Context-dependent fear conditioning memory test. In kind it is in vivo, mouse. As to conditions: C57/BL6 WT mice; 45 mg/kg every day for 10 days; foot shock 0.8 mA. Here is the method:
Fear conditioning tests Context-dependent fear conditioning. Training consists of a 3 min exposure of mice to the conditioning box (context) followed by a foot shock (2 sec, 0.5/0.8/1.0 mA, constant current). The memory test was performed 24 hr later by re-exposing the mice for 3 min into the conditioning context. Freezing, defined as a lack of movement except for heart beat and respiration associated with a crouching posture, was recorded every 10 sec by two trained observers (one was unaware of the experimental conditions) during 3 min (a total of 18 sampling intervals). The number of observations indicating freezing obtained as a mean from both observers was expressed as a percentage of the total number of observations.
Chemical administration Suberoylanilide hydroxamic acid (SAHA) was synthesized as described previously in WO 93/07148 PTC/US92/08454. Sodium butyrate was purchased from Sigma (cat.B5887). SAHA and WT-161 were dissolved in DMSO as stock solutions and diluted in saline just before injection. Sodium butyrate was prepared in saline. Mice received intraperitoneal injection daily with either SAHA or saline for 10 days or 21 days.
C57/BL6 WT mice were injected with vehicle or BRD-6929 for 10 days. On day 11, mice were trained in contextual fear conditioning paradigm (Training consisted of a 3 min exposure of mice to the conditioning box (context, TSE) followed by a foot shock (2 sec, 0.8 mA, constant current). One hour after training, mice were injected with BRD-6929 or vehicle. On day 12, mice were returned to the training box and the freezing behavior were monitored and recorded.

For another data set, the system named is HDAC1,2 vs. HDAC3. Nature of the data set: Selectivity for HDAC1,2 vs. HDAC3. Type of data set: biochemical. An excerpt: All of the BRD numbered compounds are derived from the ortho-anilide class of compounds.
Two sets of data with 3 independent samples/set are presented. Histograms representing the quantification of westerns are also shown.

Consider `CC(=O)Nc1ccc(C(=O)Nc2cc(-c3cccs3)ccc2N)cc1` [BRD-6929, 4-acetamido-N-(2-amino-5-(thiophen-2-yl)phenyl)benzamide], for which, in data set [1], the blood-brain barrier penetration entry was “crosses the blood-brain barrier”, the “brain AUC” value was found to be 3.9 µM and the “brain Cmax” value amounted to 0.83 µM. For the same compound, the “increase in H2B (tetra) histone acetylation in cortex” value in the data set with tetra-acetylated H2B [2] (acute treatment, normalized to histone H3) is 1.5-2 fold. Further, the “levels of tetra-acetylated H2B in the cortex” value in the data set on tetra-acetylated H2B [2] (single systemic dose, adult male C57BL/6J mice) was “significant increase”. Further, the “increase in H2B tetra-acetylation” value in the data set with H2B acetylation (primary cultures (striatum)) is listed as 2-3 fold. For the same compound, in the data set with H2B acetylation (primary neuronal cell cultures), the H2B acetylation entry is listed as “significant increase”. For the same compound, in the data set with H4K12 acetylation, the H4K12 acetylation result was “increase”. The “increase in acetylation of histone locus H4K12” value in data set [3] is 5-10 fold. Further, the “tetra-acetylated H2B” value in the data set with tetra-acetylated H2B [4] is reported as “trend toward increasing”. Further, the “tetra-acetylated H2B relative to the vehicle control” value in the data set with tetra-acetylated H2B [5] is recorded as “increase”. Also, the “tetra-acetylated H4” value in the data set on tetra-acetylated H4 is reported as “significantly increased”. In addition, in data set [6] (primary cultures (cortex and striatum)), the overall cell number result is listed as “does not cause an increase or decrease”. For the same compound, the overall cell number entry in data set [6] (primary neuronal cell cultures) is “do not cause an increase or decrease”. In addition, the “inhibition of HDAC8” value against HDAC8 was “does not inhibit”. Moreover, the “inhibition of Class II HDAC enzymes” value in the data set with Class II HDAC enzymes is “does not inhibit”. In addition, the “increase in acetylation levels for H2BK5” value with H2BK5 is on record as 1.5-2 fold. Besides, in the data set on mice, the “memory in contextual fear conditioning paradigm (% time freezing)” value is reported as “improved”. The “selectivity for HDAC1,2 vs. HDAC3” value with HDAC1,2 vs. HDAC3 was determined as 200 ×.
